Assay results reported in patent US10184933B2, “Compositions, systems and methods for gene expression noise drug screening and uses thereof” (priority 2013, dated 2019).
Structures can show the parent of a compound that is named as a salt. Where two headings read alike, the source gives them in different places.

Experiments:
[1] = system: latent HIV-1 in JLat 8.6 cells; assay type: cell-based
HIV-1 LTR promoter = assay type: cell-based
[2] = Pharmakon 1600 library, 10 uM, 24 hours, FIG. 10
[3] = with one or more of PMA, prostratin, TNFα, and bryostatin, FIG. 11

Compound | synergy in reactivation of HIV-1 latency [1] | identified as variability enhancer (VE) in noise screen (HIV-1 LTR promoter; [2]) | identified as variability enhancer (VE) in noise screen (HIV-1 LTR promoter) | synergy in reactivation of HIV-1 latency [1, 3] | identified as variability suppressor (VS) in noise screen (HIV-1 LTR promoter; Pharmakon 1600 library, 10 uM, 24 hours, FIG. 12)
C[C@]12CC[C@H]3[C@@H](CC[C@@]45O[C@@H]4C(O)=C(C#N)C[C@]35C)[C@@H]1CC[C@@H]2O [V26, trilostane] | synergized | variability enhancers | – | – | –
O=C(Nc1ccccc1)OCC(CN1CCCCC1)OC(=O)Nc1ccccc1 (stereo not drawn) [V30, diperodon hydrochloride] | synergized | variability enhancers | – | – | –
O=[N+]([O-])OCC(CO[N+](=O)[O-])O[N+](=O)[O-] [V100, nitroglycerin] | synergized | variability enhancers | – | – | –
CCN(C(C)=O)c1cccc(-c2ccnc3c(C#N)cnn23)c1 [V97, zaleplon] | synergized | variability enhancers | – | – | –
COCCCOc1ccnc(C[S+]([O-])c2nc3ccccc3[nH]2)c1C (stereo not drawn) [V93, rabeprazole sodium] | synergized | variability enhancers | – | – | –
Cc1cn[nH]c1 [V27, fomepizole hydrochloride] | synergized | variability enhancers | – | – | –
CC(C)(CO)[C@@H](O)C(=O)NCCCO [V90, dexpanthenol] | synergized | variability enhancers | – | – | –
Nc1ccc(S(=O)(=O)Nc2cnc3ccccc3n2)cc1 [V42, sulfaquinoxaline sodium] | synergized | variability enhancers | – | – | –
CC(C)c1c(C(=O)Nc2ccccc2)c(-c2ccccc2)c(-c2ccc(F)cc2)n1CC[C@@H](O)C[C@@H](O)CC(=O)[O-].CC(C)c1c(C(=O)Nc2ccccc2)c(-c2ccccc2)c(-c2ccc(F)cc2)n1CC[C@@H](O)C[C@@H](O)CC(=O)[O-].[Ca+2] [V20, atorvastatin calcium] | synergized | – | variability enhancers | – | –
CC(=O)Nc1c(I)cc(I)c(C(=O)O)c1I [V102, acetriazoic acid] | synergized | – | variability enhancers | – | –
CCCc1nc(C)c2c(=O)[nH]c(-c3cc(S(=O)(=O)N4CCN(CC)CC4)ccc3OCC)nn12 [V91, vardenafil hydrochloride] | synergized | variability enhancers | – | – | –
O=c1[nH]c(=O)n(Cl)c(=O)n1Cl [V63, troclosene potassium] | synergized | – | variability enhancers | – | –
Cc1cccc(N(C)C(=S)Oc2ccc3ccccc3c2)c1 [V54, tolnaftate] | synergized | variability enhancers | – | – | –
C=CCC1(C(C)CCC)C(=O)N=C(S)NC1=O (stereo not drawn) [V8, thiamylal sodium] | synergized | variability enhancers | – | – | –
CCN(CC)CC#CCOC(=O)C(O)(c1ccccc1)C1CCCCC1 (stereo not drawn) [V48, oxybutynin chloride] | synergized | – | variability enhancers | – | –
COc1ccc2c(c1)c(CC(=O)O)c(C)n2C(=O)c1ccc(Cl)cc1 [V18, Indomethacin] | synergized | variability enhancers | – | – | –
CC(C)NCC(O)c1ccc(NS(C)(=O)=O)cc1 (stereo not drawn) [V83, sotalol hydrochloride] | synergized | variability enhancers | – | – | –
O=C(O)[C@H]1/C(=C/CO)O[C@@H]2CC(=O)N21 [V85, clavulanate lithium] | synergized | variability enhancers | – | – | –
C[N+]12CCC(CC1)C(OC(=O)C(O)(c1ccccc1)c1ccccc1)C2 (stereo not drawn) [V49, clidinium bromide] | synergized | variability enhancers | – | – | –
Oc1ccc(O)cc1 [V76, hydroquinone] | synergized | – | variability enhancers | – | –
CC(C)NCC(O)c1ccc(O)c(O)c1.Cl (racemic) [V86, (±)-Isoproterenol hydrochloride] | synergized | – | variability enhancers | – | –
CNCCC(Oc1ccc(C(F)(F)F)cc1)c1ccccc1 (stereo not drawn) [V50, Fluoxetine hydrochloride] | synergized | – | variability enhancers | – | –
CNC(C)C(O)c1ccccc1 (stereo not drawn) [V87, racephedrine hydrochloride] | synergized | variability enhancers | – | – | –
colistin sulfate [V45] | – | variability enhancers | – | synergized | –

Compound | synergy in reactivation of HIV-1 latency [1] | identified as variability enhancer (VE) in noise screen (HIV-1 LTR promoter; [2]) | identified as variability enhancer (VE) in noise screen (HIV-1 LTR promoter) | synergy in reactivation of HIV-1 latency [1, 3] | identified as variability suppressor (VS) in noise screen (HIV-1 LTR promoter; Pharmakon 1600 library, 10 uM, 24 hours, FIG. 12)
COc1cc(C(=O)NCc2ccc(OCCN(C)C)cc2)cc(OC)c1OC [V52, trimethobenzamide hydrochloride] | synergized | variability enhancers | – | – | –
Cc1cc(C(C#N)c2ccc(Cl)cc2)c(Cl)cc1NC(=O)c1cc(I)cc(I)c1O (stereo not drawn) [V34, closantel] | synergized | variability enhancers | – | – | –
Cc1cc(CC(=O)O)n(C)c1C(=O)c1ccc(Cl)cc1 [V31, zomepirac sodium] | synergized | variability enhancers | – | – | –
COc1ccccc1OCCNCC(O)COc1cccc2[nH]c3ccccc3c12 (stereo not drawn) [V84, carvedilol] | synergized | variability enhancers | – | – | –
sucralfate [V79] | synergized | variability enhancers | – | – | –
COc1cnc(NS(=O)(=O)c2ccc(N)cc2)nc1 [V41, sulfameter] | synergized | variability enhancers | – | – | –
colesevalam hydrochloride [V60] | synergized | variability enhancers | – | – | –
C#CCN(C)Cc1ccccc1 [V61, Pargyline hydrochloride] | synergized | variability enhancers | – | – | –
CN1CCCN=C1COC(=O)C(O)(c1ccccc1)C1CCCCC1 (stereo not drawn) [V47, oxyphencyclimine hydrochloride] | synergized | variability enhancers | – | – | –
N[C@@H](Cc1ccc(O)c(O)c1)C(=O)O [V78, levodopa] | synergized | variability enhancers | – | – | –
CC[C@H]1OC(=O)[C@H](C)[C@@H](O[C@H]2C[C@@](C)(OC)[C@@H](O)[C@H](C)O2)[C@H](C)[C@@H](O[C@@H]2O[C@H](C)C[C@H](N(C)C)[C@H]2O)[C@](C)(O)C[C@@H](C)CN(C)[C@H](C)[C@@H](O)[C@]1(C)O [V43, azithromycin] | synergized | variability enhancers | – | – | –
Oc1ccc(Cl)cc1 [V99, parachlorophenol] | synergized | – | variability enhancers | – | –
NNc1nncc2ccccc12 [V17, hydralazine hydrochloride] | synergized | – | variability enhancers | – | –
CN(C)CCC(c1ccc(Cl)cc1)c1ccccn1 (stereo not drawn) [V58, chlorpheniramine maleate] | synergized | – | variability enhancers | – | –
CO[C@H]1C[C@H](O[C@@H]2/C(C)=C/C[C@@H]3C[C@@H](C[C@]4(CC[C@H](C)[C@@H](C5CCCCC5)O4)O3)OC(=O)[C@@H]3C=C(C)/C(=N/O)[C@H]4OC/C(=C\C=C\[C@@H]2C)[C@]43O)O[C@@H](C)[C@@H]1O [V77, selamectin] | synergized | – | variability enhancers | – | –
c1ccc2[nH]c(-c3cscn3)nc2c1 [V33, thiabendazole] | synergized | variability enhancers | – | – | –
carboplatin [V71] | – | variability enhancers | – | synergized | –
CCCc1nc2c(C)cc(-c3nc4ccccc4n3C)cc2n1Cc1ccc(-c2ccccc2C(=O)O)cc1 [V62, telmisartan] | synergized | variability enhancers | – | – | –
acetophenazine maleate [V12] | synergized | – | variability enhancers | – | –
CCN(CC)CCNC(=O)c1cc(Cl)c(N)cc1OC [V53, Metoclopramide hydrochloride] | synergized | variability enhancers | – | – | –
CO[C@@]1(NC(=O)Cc2cccs2)C(=O)N2C(C(=O)O)=C(COC(N)=O)CS[C@@H]21 [V46, cefoxitin sodium] | synergized | variability enhancers | – | – | –
COc1ccc(CCN(C)CCCC(C#N)(c2ccc(OC)c(OC)c2)C(C)C)cc1OC (racemic) [V24, (±)-Verapamil hydrochloride] | synergized | – | – | – | –
C[C@@H]1C[C@@H]([C@H](O)CC2CC(=O)NC(=O)C2)C(=O)[C@@H](C)C1 [cycloheximide] | – | – | – | – | variability suppressors
CCCSc1ccc2nc(NC(=O)OC)[nH]c2c1 [albendazole] | – | – | variability enhancers | – | –
